Measured values: PubChem BioAssay AID1996
Converted amounts (≈) assume the structure as drawn.

details: buffer; pH 7.4; 200.0 µM

SMILES | solubility kinetic
O=C(NCCCN1CCOCC1)c1cc2ccccc2cc1O | > 47.2 µg/mL
COc1cc(CC(=O)O)c([N+](=O)[O-])cc1OC | > 36.2 µg/mL
O=C(O)CC(Sc1n[nH]c(=S)s1)C(=O)O (centres undefined) | > 39.9 µg/mL
CC1CC(C)CN(S(=O)(=O)c2ccc(C(=O)N(C)Cc3ccccc3)cc2)C1 (centres undefined) | 13.7 µg/mL (≈ 34.2 µM)
COc1ccc(N2CCN(c3cc(C)c4cccc(C)c4n3)CC2)cc1 | < 0.2 µg/mL
O=C(COC(=O)c1ccccc1Cl)Nc1ccc2[nH]c(=O)[nH]c2c1 | 23.3 µg/mL (≈ 67.4 µM)
CCOc1ccc(NC(=O)/C(C#N)=C/c2cn(CC(=O)O)c3ccccc23)cc1 | > 58.4 µg/mL
COC(=O)c1sccc1NC(=O)Nc1cc(C)ccc1OC | 11.1 µg/mL (≈ 34.6 µM)
O=[N+]([O-])c1ccc(N2CCc3ccccc3C2)cc1 | 0.9 µg/mL (≈ 3.54 µM)
CN(CC(=O)Nc1ccc(OC(F)F)cc1)S(=O)(=O)/C=C/c1ccccc1 | 5.4 µg/mL (≈ 13.6 µM)
CC1c2cccn2CCN1S(=O)(=O)c1ccc(F)cc1 (centres undefined) | > 44.2 µg/mL
COc1ccccc1CNC(=O)C(Cc1ccccc1)NC(=O)c1ccccc1 (centres undefined) | 12.8 µg/mL (≈ 33 µM)
COc1ccc(C(=O)ON=C2CCN(C)CC2)cc1.Cl | > 44.8 µg/mL
CC(C)Oc1ccccc1C1(c2ccccc2)NC(=O)NC1=O (centres undefined) | > 46.6 µg/mL
Cc1nc2ccccc2cc1C(=O)Nc1ccccc1Cl | 6.7 µg/mL (≈ 22.6 µM)
CC1CCCCN1C(=S)NC(=O)c1ccccc1 (centres undefined) | > 39.4 µg/mL
O=C1N(c2ccccc2)CCN1c1ccccc1 | < 0.3 µg/mL
COc1ccc(CN2C(=O)C(C)Oc3ccccc32)cc1 (centres undefined) | 23.4 µg/mL (≈ 82.6 µM)
Cc1ccc(OCCCn2c(=O)oc3ccccc32)cc1 | 2 µg/mL (≈ 7.06 µM)
CCc1ccccc1NC(=O)NC(C)c1ccc2c(c1)OCO2 (centres undefined) | 0.6 µg/mL (≈ 1.92 µM)
COc1cccc(-n2ccnc2SCC(=O)Nc2cc(C)on2)c1 | 37.5 µg/mL (≈ 109 µM)
C=C(C)Cc1c(C)c(C#N)c2[nH]c3ccccc3n2c1=O | 2.9 µg/mL (≈ 10.5 µM)
O=C(CN1C(=O)NC2(CCSC2)C1=O)NCc1ccccc1 (centres undefined) | > 47.9 µg/mL
Nc1ccc(-c2nc3ccccc3o2)cc1 | 20.8 µg/mL (≈ 98.9 µM)
COc1ccc(NC(=O)NCc2ccccc2F)cc1OC | 10.9 µg/mL (≈ 35.8 µM)
Cc1nc2cc(Cl)c(Cl)cc2n1CCCO | 33.9 µg/mL (≈ 131 µM)
COc1ccccc1NC(=O)c1ccc2c(c1)OCO2 | 39.7 µg/mL (≈ 146 µM)
CC(=O)C(Cc1ccccc1)NC(=O)COc1ccc2c(c1)OCO2 (centres undefined) | > 51.2 µg/mL

Continued, values first:

solubility kinetic | SMILES
14 µg/mL (≈ 48.2 µM) | CN1C(=O)c2cccc3c(S(=O)(=O)N(C)C)ccc1c23
> 42.4 µg/mL | O=C(CCNS(=O)(=O)c1ccccc1)N1CCCC1
38.3 µg/mL (≈ 106 µM) | COc1cc(C(=O)NCc2ccc3c(c2)OCO3)c([N+](=O)[O-])cc1OC
0.4 µg/mL (≈ 1.6 µM) | Cc1cc(N2CCCC2)c(F)cc1/C=C\[N+](=O)[O-]
> 40.8 µg/mL | C=CCn1cccc(C(=O)Nc2ccc(F)cc2)c1=O
38.6 µg/mL (≈ 144 µM) | N#CCn1c(CN2CCCC2)nc2ccccc2c1=O
33.9 µg/mL (≈ 106 µM) | COc1ccc(S(=O)(=O)N2CCCC2)cc1Br
< 0.7 µg/mL | O=C(Nc1ccc(Cl)cc1)c1ccc(Br)cc1F
> 36.6 µg/mL | Nc1ccccc1N=c1ssnc1Cl
> 53.2 µg/mL | Cc1ccc(Oc2ncccc2NC(=O)CCCC(=O)O)c2c1CCC2
38.4 µg/mL (≈ 144 µM) | CCC(=O)Nc1ccc2oc(-c3cccnc3)nc2c1
41.1 µg/mL (≈ 144 µM) | COc1ccc(CCNC(=S)Nc2ccccc2)cc1
42.4 µg/mL | CC(CN1CCCCC1)OC(=O)c1cccc(F)c1.Cl (centres undefined)
< 0.3 µg/mL | COc1ccc(-c2cc(C(=O)Nc3ccc(C)c(C)c3)no2)cc1
40.2 µg/mL (≈ 146 µM) | CCCCOC(=O)N1CCOCCOCCOCC1
3.9 µg/mL (≈ 14.6 µM) | CC(C)c1ccc(NC(=O)CCc2ccccc2)cc1
22 µg/mL (≈ 68 µM) | O=C(Nc1ccccc1)C1CCCN1C(=O)NCc1ccccc1 (centres undefined)
< 0.4 µg/mL | CSc1nc2sc3c(c2c(=O)n1CC(C)C)CC(C)(C)OC3
> 50.4 µg/mL | COc1ccc(OC)c(C(=O)COC(=O)c2cccnc2Cl)c1
> 37.2 µg/mL | Cl.NC(N)=NC(N)=Nc1cccc(Cl)c1
25.1 µg/mL (≈ 124 µM) | c1ccc(OCCCn2ccnc2)cc1
